# Laboratory results taken from ChEMBL document CHEMBL5584321, “Chemoenzymatic Synthesis of DNP-Functionalized FGFR1-Binding Peptides as Novel Peptidomimetic Immunotherapeutics for Treating Lung Cancer” (J Med Chem, 2024).
# Activity calls are given as the source filed them. The rule behind the calls is not given here. Where a SMILES comes first, the peptide text is derived from it. The star is where a group is joined. X1 = O=[N+]([O-])c1ccc(OCCOCCOCCOCCOCCOCCN*)c([N+](=O)[O-])c1
# Assays:
# [1] = test system: L6; test: Binding affinity to human full-length wild type FGFR1c stably expressed in rat L6 cells assessed as increase in fluorescence signal by antibody recruiting based flow cytometry; type: cell-based
# [2] = test system: L6; test: Antiproliferative activity against FGF2-induced rat L6 cells stably expressing human full-length FGFR1c assessed as inhibition of cell growth incubated for 36 hrs by CCK-8 assay; type: functional, cell-based
# [3] = Toxicity in BALB/c mouse xenografted with human NCI-H1581 cells assessed as change in spleen weight at 20 mg/kg,SC administrated once daily for 12 days; type: organism-based; conditions: in vivo, 288 h, time 12 day
# [4] = test system: NCI-H1581; test: Binding affinity to FGFR1c in human NCI-H1581 cells assessed as increase in green fluorescence signal incubated for 1 hr by Alexa-488 staining based confocal fluorescence microscopic analysis; type: cell-based
# [5] = Toxicity in BALB/c mouse xenografted with human NCI-H1581 cells assessed as change in body weight at 20 mg/kg,SC administrated once daily for 12 days; type: organism-based; conditions: in vivo, 288 h, time 12 day
# [6] = test system: NCI-H1581; test: Antitumor activity against human NCI-H1581 cells xenografted BALB/c mouse model assessed as induction of apoptosis by measuring increase in TUNEL positive cells at 20 mg/kg,SC administrated once daily for 12 days; type: functional, organism-based; conditions: time 12.0 day
# [7] = Toxicity in BALB/c mouse xenografted with human NCI-H1581 cells assessed as change in liver weight at 20 mg/kg,SC administrated once daily for 12 days; type: organism-based; conditions: in vivo, 288 h, time 12 day
# [8] = test system: L6; test: Binding affinity to human full-length wild type FGFR1c stably expressed in rat L6 cells assessed as fold change in fluorescence intensity at 10 uM by antibody recruiting based flow cytometry relative to Pep1; type: cell-based
# [9] = test system: L6; test: Induction of cell lysis in rat L6 cells stably expressing human full-length FGFR1c at 1 uM incubated for 1 hr by complement dependent cytotoxicity based CCK-8 assay relative to control; type: functional
# [10] = test system: NCI-H1581; test: Antitumor activity against human NCI-H1581 cells xenografted BALB/c mouse model assessed as inhibition of tumor proliferation by measuring decrease in Ki67 positive cells at 20 mg/kg,SC administrated once daily for 12 days; type: functional, organism-based; conditions: time 12.0 day
structure (smiles),measurement,setting,value
CC(C)C[C@H](NC(=O)[C@H](C)NC(=O)[C@@H](NC(=O)[C@H](Cc1ccc(O)cc1)NC(=O)[C@H](Cc1c[nH]c2ccccc12)NC(=O)[C@H](CO)NC(=O)[C@H](CO)NC(=O)[C@H](Cc1ccc(O)cc1)NC(=O)[C@H](CCCCN)NC(=O)[C@H](CCCNC(=N)N)NC(=O)[C@H](CO)NC(=O)[C@H](CCCNC(=N)N)NC(=O)[C@@H](N)Cc1ccc(O)cc1)C(C)C)C(=O)N[C@@H](CCCCN)C(=O)N[C@@H](CCCNC(=N)N)C(=O)N[C@@H](CC(C)C)C(=O)N1CCC[C@H]1C(=O)N[C@@H](CCC(=O)O)C(=O)N[C@H](C(=O)NCC(=O)NCC(=O)NCC(=O)NCCOCCOCCOCCOCCOCCOc1ccc([N+](=O)[O-])cc1[N+](=O)[O-])[C@@H](C)O (H-YRSRKYSSWYVALKRLPETGGG-X1),Activity,[1],Dose-Dependent Effect
same,Activity,[2],Dose-Dependent Effect
same,Activity,[3],Non-Toxic
same,Activity,[4],Active
same,Activity,[5],Non-Toxic
same,Activity,[6],Active
same,Activity,[7],Non-Toxic
same,fold change (FC),[8],200
same,Activity,[9],45.8%
same,Activity,[10],Active
